# According to patent US9890166B2, “Imidazopyrrolidine derivatives and their use in the treatment of disease” (NOVARTIS AG, priority 2013, dated 2018):
# Tests used:
# BRD4 (His-Brd4(44-477)) = BRD4 (His-Brd4(44-477)) (Homo sapiens (Human), UniProt O60885); assay: TR-FRET in-vitro binding assay for BRD4; settings: single determination or n ≧ 2 independent determinations, read-out: Biochemical IC50 BRD4
# Outline: (§1)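 TR-FRET binding with His-tagged bromodomain constructs, 8-point compound dilutions from 10 mM DMSO stocks. Reactions incubated 35 min at 30° C in 13.55 μL, read on an EnVision multilabel reader.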
# BRD2 (His-Brd2(60-472)) = BRD2 (His-Brd2(60-472)) (Homo sapiens (Human), UniProt P25440); assay: TR-FRET in-vitro binding assay for BRD2; settings: single determination or n ≧ 2 independent determinations, read-out: Biochemical IC50 BRD2
# Outline: as §1
# BRD3 (His-Brd3(20-477)) = BRD3 (His-Brd3(20-477)) (Homo sapiens (Human), UniProt Q15059); assay: TR-FRET in-vitro binding assay for BRD3; settings: single determination or n ≧ 2 independent determinations, read-out: Biochemical IC50 BRD3
# Outline: as §1
# [1] = biological target: CREBBP bromodomain (His-CREBBP(1081-1197)) (Homo sapiens (Human), UniProt Q92793); assay: AlphaScreen in-vitro binding assay for CREBBP; settings: single determination or n ≧ 2 independent determinations, read-out: Biochemical IC50 CREBBP
# Outline: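 Reactions at 30 °C for 35 min, then Ni-chelate acceptor and streptavidin donor beads in HEPES pH 7.5, NaCl, Tween20, BSA, 60 min at room temperature. Eight-point compound series; IC50 by non-linear regression of percent inhibition.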
# [2] = biological target: nuclear BRD4-NUT foci in HCC2494 NUT midline carcinoma cells (Homo sapiens, UniProt O60885); assay: cell-based
# THP-1 cells = assay: Cell growth inhibition assay (CellTiter-Glo), THP-1; settings: for GI50: Homo sapiens, THP-1, read-out: THP-1 GI50; for THP-1 TGI: THP-1 cells, total growth inhibition, CellTiter-Glo;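 for all read-outs here: viability read as cellular ATP luminescence after 4 days, 3-fold dilution series from 10 µM, DMSO vehicle-treated cells taken as 100%, cell-free medium wells as −100%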
# K-562 cells = assay: Cell growth inhibition assay (CellTiter-Glo), K-562; settings: for GI50: Homo sapiens, K562, read-out: K-562 GI50; for K-562 TGI: K-562 cells, total growth inhibition, CellTiter-Glo;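 for all read-outs here: cellular ATP measured by luminescence after 4 days of exposure, 3-fold dilution series from 10 µM, DMSO vehicle-treated cells define 100%, cell-free medium wells −100%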
# MV-4-11 cells = assay: Cell growth inhibition assay (CellTiter-Glo), MV-4-11; settings: for GI50: Homo sapiens, MV4-11, read-out: MV-4-11 GI50; for MV-4-11 TGI: MV-4-11 cells, total growth inhibition, CellTiter-Glo;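 for all read-outs here: cellular ATP luminescence after 4 days, 3-fold dilution series from 10 µM top dose, vehicle (0.1% DMSO) set to 100%, cell-free medium set to −100%, day 0 corrected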
# Sequence of BRD2 (His-Brd2(60-472)) (P25440 60-472): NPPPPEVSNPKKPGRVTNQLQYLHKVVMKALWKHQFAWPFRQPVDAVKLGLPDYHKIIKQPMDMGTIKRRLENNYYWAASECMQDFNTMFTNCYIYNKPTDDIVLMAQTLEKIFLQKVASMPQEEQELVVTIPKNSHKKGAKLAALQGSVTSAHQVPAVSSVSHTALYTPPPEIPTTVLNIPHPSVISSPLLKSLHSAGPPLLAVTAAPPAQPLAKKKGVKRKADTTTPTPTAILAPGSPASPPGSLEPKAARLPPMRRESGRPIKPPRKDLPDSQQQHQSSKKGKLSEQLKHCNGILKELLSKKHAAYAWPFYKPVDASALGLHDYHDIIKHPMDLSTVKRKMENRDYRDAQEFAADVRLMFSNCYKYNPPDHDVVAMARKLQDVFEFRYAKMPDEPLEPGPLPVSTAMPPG
# Sequence of BRD3 (His-Brd3(20-477)) (Q15059 20-477): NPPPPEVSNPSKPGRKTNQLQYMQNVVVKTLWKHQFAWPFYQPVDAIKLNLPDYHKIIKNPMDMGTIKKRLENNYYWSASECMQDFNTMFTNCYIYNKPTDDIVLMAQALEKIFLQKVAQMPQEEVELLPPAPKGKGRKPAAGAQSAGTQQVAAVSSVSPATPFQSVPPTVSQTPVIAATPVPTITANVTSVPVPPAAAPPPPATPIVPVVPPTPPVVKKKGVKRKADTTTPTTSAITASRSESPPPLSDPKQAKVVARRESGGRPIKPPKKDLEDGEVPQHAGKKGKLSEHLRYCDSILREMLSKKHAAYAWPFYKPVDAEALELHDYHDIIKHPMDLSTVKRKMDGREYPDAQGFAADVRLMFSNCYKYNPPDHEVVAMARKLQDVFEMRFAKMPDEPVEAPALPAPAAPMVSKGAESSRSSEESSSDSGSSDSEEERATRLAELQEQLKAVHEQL
# Sequence of CREBBP bromodomain (His-CREBBP(1081-1197)) (Q92793 1081-1197): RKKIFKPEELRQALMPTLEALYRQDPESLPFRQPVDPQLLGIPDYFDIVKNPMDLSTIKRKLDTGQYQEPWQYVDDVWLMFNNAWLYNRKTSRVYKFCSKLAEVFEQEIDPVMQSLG
SMILES,IC50 (BRD4 (His-Brd4(44-477))),IC50 (BRD2 (His-Brd2(60-472))),IC50 (BRD3 (His-Brd3(20-477))),IC50 [1],IC50 [2],GI50 (THP-1 cells),THP-1 TGI (THP-1 cells),GI50 (K-562 cells),K-562 TGI (K-562 cells),GI50 (MV-4-11 cells),MV-4-11 TGI (MV-4-11 cells)
"Cc1cc(N2C(=O)c3c(nc(C)n3C(C)C)C2c2ccc(Cl)cc2)cc2c1nnn2C (racemic) [Example 3, 6-(4-chlorophenyl)-5-(3,7-dimethyl-3H-benzo[d][1,2,3]triazol-5-yl)-3-isopropyl-2-methyl-5,6-dihydropyrrolo[3,4-d]imidazol-4(3H)-one]",15 nM,27 nM,12 nM,2600 nM,12.3 nM,13.7 nM,27.55 nM,55.1 nM,>10000 nM,8.19 nM,14.45 nM
"Cc1cc(N2C(=O)c3nc(C4=CCOCC4)n(C(C)C)c3C2c2ccc(Cl)cc2)cn2c(C)nnc12 (centres unmarked) [Example 14, 6-(4-chlorophenyl)-2-(3,6-dihydro-2H-pyran-4-yl)-5-(3,8-dimethyl-[1,2,4]triazolo[4,3-a]pyridin-6-yl)-1-isopropyl-5,6-dihydropyrrolo[3,4-d]imidazol-4(1H)-one]",16 nM,33 nM,15 nM,2300 nM,40.9 nM,66 nM,120 nM,203 nM,>10000 nM,20.4 nM,38.8 nM
"Cc1cc(N2C(=O)c3nc(C4CC4)n(C)c3C2c2ccc(Cl)cc2)cn2c(C)nnc12 (centres unmarked) [Example 57, 6-(4-chlorophenyl)-2-cyclopropyl-5-(3,8-dimethyl-[1,2,4]triazolo[4,3-a]pyridin-6-yl)-1-methyl-5,6-dihydropyrrolo[3,4-d]imidazol-4(1H)-one]",< 11 nM,< 11 nM,< 11 nM,5100 nM,91.2 nM,83.6 nM,193 nM,572 nM,>10000 nM,40.5 nM,68.8 nM
"Cc1cc(N2C(=O)c3nc(C4=CCCN(C)C4)n(C(C)C)c3C2c2ccc(Cl)cc2)cn2c(C)nnc12 (centres unmarked) [Example 12, 6-(4-chlorophenyl)-5-(3,8-dimethyl-[1,2,4]triazolo[4,3-a]pyridin-6-yl)-1-isopropyl-2-(1-methyl-1,2,5,6-tetrahydropyridin-3-yl)-5,6-dihydropyrrolo[3,4-d]imidazol-4(1H)-one]",20 nM,43 nM,21 nM,8900 nM,374 nM,264 nM,715 nM,1040 nM,>10000 nM,42.2 nM,78.45 nM
"Cc1cc(N2C(=O)c3[nH]c(C4CC4)nc3C2c2ccc(Cl)cc2)cn(C)c1=O (centres unmarked) [Example 46, 6-(4-chlorophenyl)-2-cyclopropyl-5-(1,5-dimethyl-6-oxo-1,6-dihydropyridin-3-yl)-5,6-dihydropyrrolo[3,4-d]imidazol-4(3H)-one]",78 nM,84 nM,77 nM,2000 nM,226 nM,145 nM,305 nM,499 nM,>10000 nM,65.3 nM,108 nM
"COc1cc(N2C(=O)c3nc(C4CC4)n(C)c3C2c2ccc(Cl)cc2)cn2c(C)nnc12 (centres unmarked) [Example 56, 6-(4-chlorophenyl)-2-cyclopropyl-5-(8-methoxy-3-methyl-[1,2,4]triazolo[4,3-a]pyridin-6-yl)-1-methyl-5,6-dihydropyrrolo[3,4-d]imidazol-4(1H)-one]",130 nM,290 nM,210 nM,> 37000 nM,1210 nM,1240 nM,3670 nM,3230 nM,>10000 nM,816 nM,1340 nM
"Cc1cc(N2C(=O)c3nc(-c4nccs4)n(C4CC4)c3C2c2ccc(Cl)cc2)cn(C)c1=O (centres unmarked) [Example 43, 6-(4-chlorophenyl)-1-cyclopropyl-5-(1,5-dimethyl-6-oxo-1,6-dihydropyridin-3-yl)-2-(thiazol-2-yl)-5,6-dihydropyrrolo[3,4-d]imidazol-4(1H)-one]",64 nM,59.5 nM,55 nM,32300 nM,52.9 nM,90.5 nM,162.5 nM,356 nM,>10000 nM,66.2 nM,99.55 nM
"COc1ccc(-c2nc3c(n2C)C(c2ccc(Cl)cc2)N(c2cc(OC)c4nnc(C)n4c2)C3=O)cn1 (centres unmarked) [Example 55, 6-(4-chlorophenyl)-5-(8-methoxy-3-methyl-[1,2,4]triazolo[4,3-a]pyridin-6-yl)-2-(6-methoxypyridin-3-yl)-1-methyl-5,6-dihydropyrrolo[3,4-d]imidazol-4(1H)-one]",56 nM,110 nM,92 nM,> 37000 nM,2800 nM,2000 nM,4410 nM,7250 nM,>10000 nM,706 nM,1060 nM
"COc1ncc(-c2nc3c(n2C)C(c2ccc(Cl)cc2)N(c2cc(OC)c4nnc(C)n4c2)C3=O)c(OC)n1 (centres unmarked) [Example 54, 6-(4-chlorophenyl)-2-(2,4-dimethoxypyrimidin-5-yl)-5-(8-methoxy-3-methyl-[1,2,4]triazolo[4,3-a]pyridin-6-yl)-1-methyl-5,6-dihydropyrrolo[3,4-d]imidazol-4(1H)-one]",59 nM,120 nM,98 nM,> 37000 nM,3390 nM,3710 nM,>10000 nM,> 10000 nM,>10000 nM,2100 nM,3600 nM
"COc1ccc(-c2nc3c(n2C(C)C)C(c2ccc(Cl)cc2)N(c2cc(C)c4nnc(C)n4c2)C3=O)cn1 (centres unmarked) [Example 9, 6-(4-chlorophenyl)-5-(3,8-dimethyl-[1,2,4]triazolo[4,3-a]pyridin-6-yl)-1-isopropyl-2-(6-methoxypyridin-3-yl)-5,6-dihydropyrrolo[3,4-d]imidazol-4(1H)-one]",34 nM,43 nM,34 nM,> 37000 nM,2090 nM,98.7 nM,175 nM,258 nM,>10000 nM,48.4 nM,94.2 nM
"CCn1c(-c2ccc(OC)nc2)nc2c1C(=O)N(c1cc(C)c(=O)n(C)c1)[C@@H]2c1ccc(Cl)cc1 [Example 39, (R)-6-(4-chlorophenyl)-5-(1,5-dimethyl-6-oxo-1,6-dihydropyridin-3-yl)-3-ethyl-2-(6-methoxypyridin-3-yl)-5,6-dihydropyrrolo[3,4-d]imidazol-4(3H)-one]",28.5 nM,24 nM,32 nM,910 nM,21.1 nM,26.2 nM,48.1 nM,72 nM,>10000 nM,11.7 nM,23.9 nM
"COc1ncc(-c2nc3c(n2C(C)C)C(c2ccc(Cl)cc2)N(c2cc(C)c4nnc(C)n4c2)C3=O)c(OC)n1 (centres unmarked) [Example 10, 6-(4-chlorophenyl)-2-(2,4-dimethoxypyrimidin-5-yl)-5-(3,8-dimethyl-[1,2,4]triazolo[4,3-a]pyridin-6-yl)-1-isopropyl-5,6-dihydropyrrolo[3,4-d]imidazol-4(1H)-one]",45 nM,60 nM,59 nM,6300 nM,180 nM,158 nM,302 nM,326 nM,>10000 nM,29.7 nM,78.5 nM
"CCn1c(C)nc2c1C(=O)N(c1cc(C)c3nnn(C)c3c1)C2c1ccc(Cl)cc1 (centres unmarked) [Example 121, 6-(4-chlorophenyl)-5-(3,7-dimethyl-3H-benzo[d][1,2,3]triazol-5-yl)-3-ethyl-2-methyl-5,6-dihydropyrrolo[3,4-d]imidazol-4(3H)-one]",29 nM,29 nM,27 nM,4400 nM,3.07 nM,9 nM,20.1 nM,48.1 nM,>10000 nM,10.8 nM,20.9 nM
